According to publication PMC12736018, “Stereoselective Cytotoxicity of Enantiopure 3,3-Dichloro-γ-lactams: Correlating In Vitro Activity with In Vivo Tolerability” (Molecules, 2025):

Columns and labels:
[1] = NRU cell viability assay, MCF-7; format: cell-based, human; settings: human, MCF-7 cells (breast adenocarcinoma), MCF-7, NRU, highest tested concentration (250 µg/mL)
Description: (§1) The murine Swiss albino fibroblast (3T3), the immortal human keratinocyte (HaCaT), the squamous cell carcinoma (A431), the human epithelial carcinoma (HeLa) and the human breast adenocarcinoma (MCF-7) cell lines were sourced from Celltec UB (Barcelona, Spain). All cells were maintained and grown in DMEM medium (4.5 g/L glucose) supplemented with 10% (v/v) FBS, 2 mM L-glutamine, 100 U/mL penicillin and 100 μg/mL streptomycin at 37 °C, 5% CO2. Cells were routinely cultured in 75 cm^2 culture flasks and were trypsinized using trypsin-EDTA when the cells reached approximately 80%. Cell concentration in the resulting suspension was assessed using the trypan blue assay, which enables direct discrimination between viable (unstained) and non-viable (blue) cells.
(§2) T3 and HaCaT cells (1 × 10^5 cells/mL), along with A431, HeLa, and MCF-7 cells (5 × 10^4 cells/mL), were cultured at defined seeding densities in the 60 central wells of a 96-well plate. Cells were first incubated for 24 h under standard incubator conditions (5% CO2, 37 °C). After this period, the culture medium was removed, and the cells were incubated for an additional 24 h with their corresponding compound solutions (1 mg/mL) previously diluted in a minimum amount of DMF (dimethylformamide) and then in DMEM medium supplemented with 5% FBS (100 µL) at the required concentration range (20 to 250 µg/mL). Cell viability following exposure to the lactam derivatives was evaluated using two complementary assays: NRU and MTT.
(§3) The neutral red uptake (NRU) assay is based on the accumulation of dye in the lysosomes of viable cells. After the cells were incubated for 24 h with the corresponding systems, the medium was removed, and the solutions were incubated with the NR dye (Sigma-Aldrich, St. Louis, MO, USA) solution (50 µg/mL) dissolved in the medium, without FBS and without phenol red (Lonza, Verviers, Belgium), for 3 h. Cells were then washed with sterile PBS, followed by the addition of 100 µL of a solution containing 50% absolute ethanol and 1% acetic acid in distilled water to extract the dye. To promote the total dissolution of the dye, plates were placed in a microtiter-plate shaker for 5 min at room temperature. The absorbance of the resulting solutions was measured at 550 nm (Bio-Rad 550 microplate reader, Bio-Rad California, Hercules, CA, USA). Finally, the effect of each treatment was calculated as the percentage of dye uptake by viable cells relative to the control cells (cells without any treatment). Finally, the effect of each treatment was calculated as the percentage of dye retained by viable cells compared with untreated control cells.
(§4) The half-maximal inhibitory concentration (IC50) values for the different formulations, across cell lines and experimental endpoints, were obtained by fitting the concentration-dependent viability curves. […] These findings reflect the very low cytotoxicity of the compounds toward these cell lines.

HaCaT cells = test: NRU cell viability assay, HaCaT; format: cell-based; settings: Homo sapiens, 24 h
Description: as §1, §2
as §3, with “[…]” for “control cells.”

[2] = NRU cell viability assay, A431; format: cell-based, human; settings: human, A431 cells (squamous cell carcinoma), highest tested concentration (250 µg/mL)
Description: as §1, §2, §3, §4

[3] = NRU cell viability assay, HeLa; format: cell-based, human; settings: human, HeLa cells (epithelial carcinoma), highest tested concentration (250 µg/mL)
Description: as §1, §2, §3, §4

Row | Structure (SMILES) | viability at 24 h, 250 µg/mL [1] [%] | IC50 (HaCaT cells) [µg/mL] | viability at 24 h, 250 µg/mL [2] [%] | viability at 24 h, 250 µg/mL [3] [%]
1 | C[C@@H]1CN([C@@H](C)c2ccccc2)C(=O)C1(Cl)Cl [Compound 3, (R)-3,3-dichloro-4-methyl-1-((S)-1-phenylethyl)pyrrolidin-2-one] | 20 to 30 | > 250 | 20 to 30 | 20 to 30
2 | C[C@H](c1ccccc1)N1C[C@H](C)C(Cl)(Cl)C1=O [Compound 4] |  | > 250 |  | 
